Assay results: the PolyMetriX glass transition set
± gives the standard deviation of the reports.

With `*CC(O)COc1c(Cl)cc(C(C)(C)c2cc(Cl)c(O*)c(Cl)c2)cc1Cl` (repeat unit) as the compound, how does the glass transition temperature read?
The glass transition temperature was 135.00 °C.

Which glass transition temperature does the source give for `*CCN(CCOC(=O)c1cc(OCCN(C)c2ccc(S(=O)(=O)CCCCCCCC)cc2)cc(C(=O)O*)c1)c1ccc(S(=O)(=O)C(F)(F)C(F)(F)C(F)(F)C(F)(F)C(F)(F)C(F)(F)C(F)(F)C(F)(F)F)cc1` (repeat unit) here?
The glass transition temperature was 80.00 °C.

For `*/C=C(/*)C(C)(C)C` (repeat unit), which glass transition temperature is on record?
The glass transition temperature was 200.00 °C.

With `*Oc1ccc(CC(NC(=O)CCc2ccc(OC(=O)CCCCCCC(*)=O)cc2)C(=O)OCCOCCOCC)cc1` (repeat unit) as the compound, how does the glass transition temperature read?
Its glass transition temperature is 6.00 °C.

Which glass transition temperature does the source give for `*CC(OO*)c1ccc(Br)cc1` (repeat unit) here?
Its glass transition temperature is 9.60 °C.

With `*CC(C)O*` (repeat unit) [Poly(propylene glycol)] as the compound, how does the glass transition temperature read?
Its glass transition temperature is -69.18 ± 2.6 °C.

Which glass transition temperature does the source give for `*c1cc(Br)c(Oc2c(Br)cc(N3C(=O)c4ccc(-c5ccc6c(c5)C(=O)N(*)C6=O)cc4C3=O)cc2Br)c(Br)c1` (repeat unit) here?
The glass transition temperature was 287.00 °C.

For `*CC(*)(C)C(=O)Oc1c(C(C)C)cccc1C(C)C` (repeat unit), which glass transition temperature is on record?
The glass transition temperature was 198.00 °C.

Which glass transition temperature does the source give for `*/C=C/C1CC(*)C2C(=O)N(c3cc(C(F)(F)F)cc(C(F)(F)F)c3)C(=O)C12` (repeat unit) here?
The glass transition temperature was 162.00 °C.

With `*CC(*)(C)C(=O)OCCCCCCCCCCOc1ccc(/N=N/c2ccc(F)cc2)cc1` (repeat unit) as the compound, how does the glass transition temperature read?
Its glass transition temperature is 49.00 °C.

For `*CC(CCCCCCCCCCCCCCCC)C1C(=O)N(CCCCCCCCCCCC)C(=O)C1*` (repeat unit), which glass transition temperature is on record?
Its glass transition temperature is 30.00 °C.

With `*c1cccc(OCCCCCOc2cccc(N3C(=O)c4ccc(-c5cccc6c5C(=O)N(*)C6=O)cc4C3=O)c2)c1` (repeat unit) as the compound, how does the glass transition temperature read?
The glass transition temperature was 168.00 °C.

With `*O[Si](C)(C)O[Si](C)(C)O[Si](C)(C)O[Si](C)(C)Oc1c(C)cc(-c2cc(C)c(*)c(C)c2)cc1C` (repeat unit) as the compound, how does the glass transition temperature read?
The glass transition temperature was -16.00 °C.

For `*OP(=O)(Oc1ccc(S(=O)(=O)c2ccc(*)cc2)cc1)OC1CCCCC1` (repeat unit), which glass transition temperature is on record?
The glass transition temperature was 120.00 °C.

With `*CCN(*)C(=O)CSC` (repeat unit) as the compound, how does the glass transition temperature read?
Its glass transition temperature is 39.00 °C.

With `*c1cc(Br)c(-c2c(Br)cc(N3C(=O)c4ccc(-c5ccc6c(c5)C(=O)N(*)C6=O)cc4C3=O)cc2C(=O)OCCCCCCCC)c(C(=O)OCCCCCCCC)c1` (repeat unit) as the compound, how does the glass transition temperature read?
The glass transition temperature was 135.50 °C.

Which glass transition temperature does the source give for `*CC(*)(C)C(=O)OCC1COC(=O)O1` (repeat unit) here?
Its glass transition temperature is 124.00 °C.

Which glass transition temperature does the source give for `*c1ccc(Oc2ccc(-c3ccc(Oc4ccc(N5C(=O)c6cccc(Oc7c(Oc8cccc9c8C(=O)N(*)C9=O)cc(C(C)(C)C)cc7C(C)(C)C)c6C5=O)cc4)cc3)cc2)cc1` (repeat unit) here?
The glass transition temperature was 237.00 °C.

With `*OC1C(COC(=O)Nc2ccccc2)OC(*)C(OC(=O)Nc2ccccc2)C1OC(=O)Nc1ccccc1` (repeat unit) as the compound, how does the glass transition temperature read?
The glass transition temperature was 217.00 °C.

Which glass transition temperature does the source give for `*CCCC(CCNC(=O)c1ccc(C(=O)N*)cc1)C(C)C` (repeat unit) here?
The glass transition temperature was 150.00 °C.

For `*Oc1cccc(Oc2ccc(S(=O)(=O)c3ccc(*)cc3)cc2)c1` (repeat unit), which glass transition temperature is on record?
Its glass transition temperature is 177.00 °C.

With `*c1ccc(Oc2ccc(S(=O)(=O)c3ccc(C)cc3)cc2)c(N2C(=O)c3ccc(-c4ccc5c(c4)C(=O)N(*)C5=O)cc3C2=O)c1` (repeat unit) as the compound, how does the glass transition temperature read?
The glass transition temperature was 281.00 °C.

For `*CCCS(=O)(=O)CCCCS(=O)(=O)CCCOC(=O)O*` (repeat unit), which glass transition temperature is on record?
Its glass transition temperature is 43.00 °C.

Which glass transition temperature does the source give for `*C(=O)c1ccc2c(c1)C(=O)N(c1ccc(C)c(N3C(=O)c4ccc(*)cc4C3=O)c1)C2=O` (repeat unit) here?
Its glass transition temperature is 317.2 ± 3.2 °C.

Which glass transition temperature does the source give for `*CCOC(=O)CCSCCC(=O)O*` (repeat unit) here?
Its glass transition temperature is -43.00 °C.

For `*Oc1ccc(C(=O)Nc2cc(C(c3ccc(C)c(NC(=O)c4ccc(OC(=O)c5cccc(C(*)=O)c5)cc4)c3)(C(F)(F)F)C(F)(F)F)ccc2C)cc1` (repeat unit), which glass transition temperature is on record?
Its glass transition temperature is 214.00 °C.

With `*CC(*)(CCC(C)C(=O)OC)C(=O)OC` (repeat unit) as the compound, how does the glass transition temperature read?
Its glass transition temperature is 34.00 °C.

With `*CC/C(C)=C(/*)C` (repeat unit) as the compound, how does the glass transition temperature read?
The glass transition temperature was 4.00 °C.

With `*CCCCCCCCCCCCNC(=O)CCP(C)(=O)CCC(=O)N*` (repeat unit) as the compound, how does the glass transition temperature read?
Its glass transition temperature is 44.00 °C.

Which glass transition temperature does the source give for `*C1CCOC1*` (repeat unit) here?
Its glass transition temperature is 131.00 °C.

Which glass transition temperature does the source give for `*c1ccc(Oc2ccc(N3C(=O)c4ccc(Oc5ccc(-c6ccc(Oc7ccc8c(c7)C(=O)N(*)C8=O)cc6)cc5)cc4C3=O)cc2)cc1` (repeat unit) here?
The glass transition temperature was 229.00 °C.

For `*C([2H])([2H])C(*)([2H])c1c([2H])c([2H])c([2H])c([2H])c1[2H]` (repeat unit), which glass transition temperature is on record?
Its glass transition temperature is 97.00 °C.

For `*C(=O)Nc1ccc(C(c2ccc(NC(=O)c3ccc4c(c3)C(=O)N(c3ccc(Oc5cccc6c(Oc7ccc(N8C(=O)c9ccc(*)cc9C8=O)cc7)cccc56)cc3)C4=O)cc2)(C(F)(F)F)C(F)(F)F)cc1` (repeat unit), which glass transition temperature is on record?
Its glass transition temperature is 283.00 °C.

Which glass transition temperature does the source give for `*Oc1ccc(-c2ccc(Oc3ccc(C(C)(C)c4ccc(*)cc4)cc3)cc2)cc1` (repeat unit) here?
The glass transition temperature was 154.00 °C.

With `*CC(*)(C)C(=O)OCCCCCCCCCCn1c2ccccc2c2cc(/C=C(\C#N)C(=O)OC)ccc21` (repeat unit) as the compound, how does the glass transition temperature read?
Its glass transition temperature is 58.00 °C.

For `*CCCCCCOC(=O)NC1CCC(CC2CCC(NC(=O)OCCCCCCOc3ccc(CCc4ccc(O*)cc4)cc3)CC2)CC1` (repeat unit), which glass transition temperature is on record?
The glass transition temperature was 40.30 °C.

With `*Nc1ccc(NC(=O)c2ccc(NC(=O)CCCCCCCCC(=O)Nc3ccc(C(*)=O)cc3)cc2)cc1C(=O)OCCCCCCCCCCCC` (repeat unit) as the compound, how does the glass transition temperature read?
Its glass transition temperature is 228.50 °C.

Which glass transition temperature does the source give for `*c1cccc(P(=O)(c2ccccc2)c2cccc(-n3c(=O)c4cc5c(=O)n(*)c(=O)c5c(-c5ccccc5)c4c3=O)c2)c1` (repeat unit) here?
The glass transition temperature was 325.00 °C.

Which glass transition temperature does the source give for `*c1cc(C)c(/N=C/c2ccc(OCc3ccccc3COc3ccc(/C=N/c4cc(C)c(N5C(=O)c6ccc7c8ccc9c%10c(ccc(c%11ccc(c6c7%11)C5=O)c%108)C(=O)N(*)C9=O)cc4C)cc3)cc2)cc1C` (repeat unit) here?
Its glass transition temperature is 128.00 °C.

Which glass transition temperature does the source give for `*c1cccc(-n2nc(-c3ccccc3)c3cc(Oc4ccc5c(-c6ccccc6)nn(*)c(=O)c5c4)ccc3c2=O)c1C#N` (repeat unit) here?
Its glass transition temperature is 301.00 °C.

For `*OP(=O)(Oc1ccccc1)Oc1c(C)cc(S(=O)(=O)c2cc(C)c(*)c(C)c2)cc1C` (repeat unit), which glass transition temperature is on record?
The glass transition temperature was 142.00 °C.

For `*c1ccc(-c2ccc(-c3nc4ccc(Oc5ccc6nc(*)c(-c7ccccc7)c(-c7ccccc7)c6c5)cc4c(-c4ccccc4)c3-c3ccccc3)cc2)cc1` (repeat unit), which glass transition temperature is on record?
The glass transition temperature was 351.00 °C.

Which glass transition temperature does the source give for `*c1ccc2c(c1)C(=O)N(c1cccc(Oc3cccc(N4C(=O)c5ccc(C(*)(C(F)(F)F)C(F)(F)F)cc5C4=O)c3)c1)C2=O` (repeat unit) here?
Its glass transition temperature is 244.00 °C.

Which glass transition temperature does the source give for `*CC(*)(C)C(=O)OCCCCCCOc1ccc(/N=N/c2ccc([N+](=O)[O-])cc2)cc1` (repeat unit) here?
Its glass transition temperature is 108.00 °C.

For `*Nc1ccc(Cc2ccc(NC(=O)c3cc(C(*)=O)cc(S(=O)(=O)c4ccccc4)c3)cc2)cc1` (repeat unit), which glass transition temperature is on record?
Its glass transition temperature is 270.00 °C.

Which glass transition temperature does the source give for `*C(=O)c1ccc2c(c1)C(=O)N(c1cccc(OCCOc3cccc(N4C(=O)c5ccc(*)cc5C4=O)c3)c1)C2=O` (repeat unit) here?
Its glass transition temperature is 191.00 °C.

With `*CC(*)C(=O)Oc1ccc(C(=O)O)cc1` (repeat unit) as the compound, how does the glass transition temperature read?
The glass transition temperature was 125.00 °C.

With `*C(=O)c1ccc2ncc(-c3ccc(-c4cnc5ccc(*)cc5n4)cc3)nc2c1` (repeat unit) as the compound, how does the glass transition temperature read?
Its glass transition temperature is 318.00 °C.

Which glass transition temperature does the source give for `*CC(=O)Nc1ccc(S(=O)(=O)c2ccc(NC(=O)c3ccc4c(c3)C(=O)N(*)C4=O)cc2)cc1` (repeat unit) here?
The glass transition temperature was 232.00 °C.

With `*CC(*)(C)C(=O)OCC[N+](C)(C)CCCCCCC` (repeat unit) as the compound, how does the glass transition temperature read?
Its glass transition temperature is -44.00 °C.

With `*c1ccc(-c2ccc(-n3c(-c4ccc(Oc5ccc(C(=O)c6ccc(Oc7ccc(C(=O)c8ccc(Oc9ccc(-c%10nc%11ccccc%11n%10*)cc9)cc8)cc7)cc6)cc5)cc4)nc4ccccc43)cc2)cc1` (repeat unit) as the compound, how does the glass transition temperature read?
Its glass transition temperature is 243.00 °C.

For `*CC(*)c1ccc(C(=O)N2CCCCC2)cc1` (repeat unit), which glass transition temperature is on record?
Its glass transition temperature is 114.00 °C.

For `*Oc1ccc(NC(=O)CCCCC(=O)Nc2ccc(*)cc2)cc1` (repeat unit), which glass transition temperature is on record?
Its glass transition temperature is 230.00 °C.

For `*c1ccc(-c2c(-c3ccccc3)nc3ccc(Oc4ccc5nc(-c6ccccc6)c(*)c(-c6ccccc6)c5c4)cc3c2-c2ccccc2)cc1` (repeat unit), which glass transition temperature is on record?
Its glass transition temperature is 311.00 °C.

For `*Oc1ccc(OC(C)COCCCCCCCOc2ccc(-c3ccc(C(*)=O)cc3)cc2)c([N+](=O)[O-])c1` (repeat unit), which glass transition temperature is on record?
Its glass transition temperature is 50.00 °C.

With `*Oc1ccc(C(c2ccc(OC3(F)C(*)(F)C(F)(F)C3(F)F)cc2)(C(F)(F)F)C(F)(F)F)cc1` (repeat unit) as the compound, how does the glass transition temperature read?
The glass transition temperature was 122.50 °C.

Which glass transition temperature does the source give for `*c1ccc([Si](*)(C)C)s1` (repeat unit) here?
The glass transition temperature was 21.00 °C.

With `*C(=O)Nc1ccc(Oc2ccccc2-c2ccccc2Oc2ccc(NC(=O)c3ccc4c(c3)C(=O)N(c3ccc(Oc5ccc(Oc6ccc(N7C(=O)c8ccc(*)cc8C7=O)cc6)cc5)cc3)C4=O)cc2)cc1` (repeat unit) as the compound, how does the glass transition temperature read?
Its glass transition temperature is 238.00 °C.

With `*CCCCCCCOC(=O)NCCCCCCNC(=O)O*` (repeat unit) as the compound, how does the glass transition temperature read?
The glass transition temperature was 55.00 °C.

For `*O[Si](C)(C)c1cc(OCCOCc2ccccc2)c([Si](*)(C)C)cc1OCCOCc1ccccc1` (repeat unit), which glass transition temperature is on record?
Its glass transition temperature is 76.00 °C.

For `*C(=O)c1ccc2c(c1)C(=O)N(c1ccc(Oc3ccc(N4C(=O)c5ccc(*)cc5C4=O)cc3Br)c(Br)c1)C2=O` (repeat unit), which glass transition temperature is on record?
The glass transition temperature was 296.00 °C.

For `*CC(*)(C)C(=O)OCCCCCCCCOc1ccc(C(=O)Oc2ccc(C(=O)/C=C/c3c(C)c4ccccc4n3C)cc2)cc1` (repeat unit), which glass transition temperature is on record?
The glass transition temperature was 75.00 °C.

With `*c1ccc2cc3cc(-c4sc(-c5cc(CCCCCCCCCCCC)c(*)s5)cc4CCCCCCCCCCCC)ccc3cc2c1` (repeat unit) as the compound, how does the glass transition temperature read?
The glass transition temperature was 158.00 °C.

With `*C(*)C(=O)OC1CCCCC1` (repeat unit) as the compound, how does the glass transition temperature read?
Its glass transition temperature is 140.00 °C.

For `*CC(C)C(=O)N*` (repeat unit), which glass transition temperature is on record?
Its glass transition temperature is 96.00 °C.

Which glass transition temperature does the source give for `*Nc1cccc(NC(=O)CCCCCCC(*)=O)c1` (repeat unit) here?
The glass transition temperature was 115.50 °C.
